Patent US20120270929A1, “MODULATION OF TTC39 EXPRESSION TO INCREASE HDL” (ISIS Pharmaceuticals, Inc., priority 2009, published 2012)
Oligonucleotides are written 5' to 3', each unit as a sugar letter and its base; * is a phosphorothioate linkage, no mark a phosphodiester; rarer units and linkages stand in square brackets, end groups in braces. Plain capitals give the bases only. e = 2'-O-(2-methoxyethyl) (MOE); [5mC] = 5-methylcytosine; d = 2'-deoxy (DNA)

Assays:
Type in all cases: cell-based
murine TTC39B mRNA [1] = experiment: Antisense inhibition of murine TTC39B in mouse primary hepatocytes, single dose; conditions: 100 nM, cytofectin, ~24 h, vs untreated control
Procedure: Antisense oligonucleotides targeted to a TTC39B nucleic acid were tested for their effects on TTC39B mRNA in vitro. Cultured mouse primary hepatocytes at a density of 10,000 cells per well were transfected using cytofectin reagent with 100 nM antisense oligonucleotide. After a treatment period of approximately 24 hours, RNA was isolated from the cells and TTC39B mRNA levels were measured by quantitative real-time PCR. TTC39B mRNA levels were adjusted according to total RNA content, as measured by RIBOGREEN®. Results are presented as percent inhibition of TTC39B, relative to untreated control cells.
The chimeric antisense oligonucleotides in Tables 1 and 2 were designed as 5-10-5 MOE gapmers. The gapmers are 20 nucleotides in length, wherein the central gap segment is comprised of 10 2′-deoxynucleotides and is flanked on both sides (in the 5′ and 3′ directions) by wings comprising 5 nucleotides each. Each nucleotide in the 5′ wing segment and each nucleotide in the 3′ wing segment has a 2′-MOE modification. The internucleoside linkages throughout each gapmer are phosphorothioate (P═S) linkages. All cytosine residues throughout each gapmer are 5-methylcytosines. “Target start site” indicates the 5′-most nucleotide to which the gapmer is targeted. “Target stop site” indicates the 3′-most nucleotide to which the gapmer is targeted. Each gapmer listed in Table 1 is targeted to SEQ ID NO: 6 (GENBANK Accession No. NM_027238.2) and each gapmer listed in Table 2 is targeted to SEQ ID NO: 10 (the complement of GENBANK Accession No. NT—039260.7 truncated at nucleotides 22491001 to 22601000), SEQ ID NO: 11 (GENBANK Accession No. BY244623.1), SEQ ID NO: 12 (GENBANK Accession No. BY260936), SEQ ID NO: 13 (GENBANK Accession No. BM935568.1) or SEQ ID NO: 14 (GENBANK Accession No. BY728780.1).

murine TTC39B mRNA [2] = experiment: Dose-dependent antisense inhibition of murine TTC39B in mouse primary hepatocytes (Example 2); conditions: cytofectin, ~16 h
Procedure: Cells were plated at a density of 10,000 cells per well and transfected using cytofectin reagent with 25 nM, 50 nM, 100 nM, and 200 nM concentrations of antisense oligonucleotide, as specified in Table 3. After a treatment period of approximately 16 hours, RNA was isolated from the cells and TTC39B mRNA levels were measured by quantitative real-time PCR. Murine primer probe set mTtc39b_LTS00287 (forward sequence: […], incorporated herein as SEQ ID NO: 94; reverse sequence: […], incorporated herein as SEQ ID NO: 95; probe sequence: […], incorporated herein as SEQ ID NO: 96) was used to measure mRNA levels. TTC39B mRNA levels were adjusted according to total RNA content, as measured by RIBOGREEN®. Results are presented as percent inhibition of TTC39B, relative to untreated control cells.

murine TTC39C mRNA [3] = experiment: Antisense inhibition of mouse TTC39C in mouse primary hepatocytes, single dose; conditions: 8,000 nM antisense oligonucleotide, electroporation, approximately 24 hours, TTC39C mRNA by real-time PCR (RTS3266), relative to untreated control cells
Procedure: Antisense oligonucleotides were designed targeting a TTC39C nucleic acid and were tested for their effects on TTC39C mRNA in vitro. Cultured mouse primary hepatocytes at a density of 30,000 cells per well were transfected by electroporation with 8,000 nM antisense oligonucleotide. After a treatment period of approximately 24 hours, RNA was isolated from the cells and TTC39C mRNA levels were measured by quantitative real-time PCR. Mouse primer probe set RTS3266 (forward sequence […], designated herein as SEQ ID NO: 140; reverse sequence […], designated herein as SEQ ID NO: 141; probe sequence […], designated herein as SEQ ID NO: 142). TTC39C mRNA levels were adjusted according to total RNA content, as measured by RIBOGREEN®. Results are presented as percent inhibition of TTC39C, relative to untreated control cells.
The chimeric antisense oligonucleotides targeting TTC39C were designed as 5-10-5 MOE gapmers. The gapmers are 20 nucleotides in length, wherein the central gap segment is comprised of ten 2′-deoxynucleotides and is flanked on both sides (in the 5′ and 3′ directions) by wings comprising five nucleotides each. Each nucleotide in the 5′ wing segment and each nucleotide in the 3′ wing segment has a 2′-MOE modification. The internucleoside linkages throughout each gapmer are phosphorothioate (P═S) linkages. All cytosine residues throughout each gapmer are 5-methylcytosines. “Mouse Target start site” indicates the 5′-most nucleotide to which the gapmer is targeted in the mouse gene sequence.

murine TTC39C mRNA [4] = experiment: Dose-dependent antisense inhibition of murine TTC39C in mouse primary hepatocytes; conditions: electroporation, ~16 h
Procedure: Thirty antisense oligonucleotides were selected from the study described in Example 8 and further tested at various doses in mouse primary hepatocytes. Cells were plated at a density of 30,000 cells per well and transfected using electroporation with 500 nM, 1,000 nM, 2,000 nM, 4,000 nM, and 8,000 nM concentrations of antisense oligonucleotide, as specified in Table 30. After a treatment period of approximately 16 hours, RNA was isolated from the cells and TTC39C mRNA levels were measured by quantitative real-time PCR. Murine primer probe set RTS3266 was used to measure mRNA levels. TTC39C mRNA levels were adjusted according to total RNA content, as measured by RIBOGREEN®. Results are presented as percent inhibition of TTC39C, relative to untreated control cells.

[5] = gapmers targeted to SEQ ID NO: 6

Substance | % inhibition of murine TTC39B mRNA (murine TTC39B mRNA [1]; [5]) [%] | percent inhibition of TTC39B mRNA (murine TTC39B mRNA [2]; 25 nM) [%] | percent inhibition of TTC39B mRNA (murine TTC39B mRNA [2]; 50 nM) [%] | percent inhibition of TTC39B mRNA (murine TTC39B mRNA [2]; 100 nM) [%] | percent inhibition of TTC39B mRNA (murine TTC39B mRNA [2]; 200 nM) [%] | % inhibition of murine TTC39B mRNA (murine TTC39B mRNA [1]; gapmers targeted to SEQ ID NO: 10-14) [%] | % inhibition (murine TTC39C mRNA [3]) [%] | percent inhibition of TTC39C mRNA (murine TTC39C mRNA [4]; 500.0 nM) [%] | percent inhibition of TTC39C mRNA (murine TTC39C mRNA [4]; 1000.0 nM) [%] | percent inhibition of TTC39C mRNA (murine TTC39C mRNA [4]; 2000.0 nM) [%] | percent inhibition of TTC39C mRNA (murine TTC39C mRNA [4]; 4000.0 nM) [%] | percent inhibition of TTC39C mRNA (murine TTC39C mRNA [4]; 8000.0 nM) [%] | IC50 (murine TTC39C mRNA [4]; mouse primary hepatocytes) [nM]
AATGCCACCACCTTCAACCA (antisense eA*eA*eT*eG*e[5mC]*d[5mC]*dA*d[5mC]*d[5mC]*dA*d[5mC]*d[5mC]*dT*dT*d[5mC]*eA*eA*e[5mC]*e[5mC]*eA) [ISIS 447138] | 65 | 20 | 49 | 68 | 86 |  |  |  |  |  |  |  | 
ATGCCATTCTGGATGTCCTG (antisense eA*eT*eG*e[5mC]*e[5mC]*dA*dT*dT*d[5mC]*dT*dG*dG*dA*dT*dG*eT*e[5mC]*e[5mC]*eT*eG) [ISIS 447106] | 70 | 41 | 55 | 78 | 87 |  |  |  |  |  |  |  | 
GAGATCAGTTTCTGATGAAA (antisense eG*eA*eG*eA*eT*d[5mC]*dA*dG*dT*dT*dT*d[5mC]*dT*dG*dA*eT*eG*eA*eA*eA) [ISIS 447169] |  | 17 | 43 | 65 | 81 | 67 |  |  |  |  |  |  | 
GAGTCCACCTTTGATGAAGT (antisense eG*eA*eG*eT*e[5mC]*d[5mC]*dA*d[5mC]*d[5mC]*dT*dT*dT*dG*dA*dT*eG*eA*eA*eG*eT) [ISIS 447110] | 69 | 39 | 52 | 77 | 87 |  |  |  |  |  |  |  | 
GCCAATCTAAAAATGGCTCA (antisense eG*e[5mC]*e[5mC]*eA*eA*dT*d[5mC]*dT*dA*dA*dA*dA*dA*dT*dG*eG*e[5mC]*eT*e[5mC]*eA) [ISIS 447135] | 67 | 35 | 52 | 66 | 76 |  |  |  |  |  |  |  | 
GCTCAGCTTGCAAGGGCCGC (antisense eG*e[5mC]*eT*e[5mC]*eA*dG*d[5mC]*dT*dT*dG*d[5mC]*dA*dA*dG*dG*eG*e[5mC]*e[5mC]*eG*e[5mC]) [ISIS 447127] | 65 | 40 | 62 | 84 | 90 |  |  |  |  |  |  |  | 
GGACTGCCTGCCATGGGTGC (antisense eG*eG*eA*e[5mC]*eT*dG*d[5mC]*d[5mC]*dT*dG*d[5mC]*d[5mC]*dA*dT*dG*eG*eG*eT*eG*e[5mC]) [ISIS 447146] | 69 | 44 | 55 | 78 | 89 |  |  |  |  |  |  |  | 
GGAGGTCCCCTGGCCACGGC (antisense eG*eG*eA*eG*eG*dT*d[5mC]*d[5mC]*d[5mC]*d[5mC]*dT*dG*dG*d[5mC]*d[5mC]*eA*e[5mC]*eG*eG*e[5mC]) [ISIS 447151] | 65 | 39 | 56 | 76 | 85 |  |  |  |  |  |  |  | 
GGCACTCTTTATATATTTGG (antisense eG*eG*e[5mC]*eA*e[5mC]*dT*d[5mC]*dT*dT*dT*dA*dT*dA*dT*dA*eT*eT*eT*eG*eG) [ISIS 447111] | 71 | 30 | 60 | 77 | 87 |  |  |  |  |  |  |  | 
GGTGGAGTCTGGCCCTCAGC (antisense eG*eG*eT*eG*eG*dA*dG*dT*d[5mC]*dT*dG*dG*d[5mC]*d[5mC]*d[5mC]*eT*e[5mC]*eA*eG*e[5mC]) [ISIS 447142] | 66 | 36 | 64 | 85 | 91 |  |  |  |  |  |  |  | 
GTTGCCTTGGACCATTTACT (antisense eG*eT*eT*eG*e[5mC]*d[5mC]*dT*dT*dG*dG*dA*d[5mC]*d[5mC]*dA*dT*eT*eT*eA*e[5mC]*eT) [ISIS 447122] | 67 | 35 | 61 | 78 | 88 |  |  |  |  |  |  |  | 
ISIS 474515: 5-10-5 MOE gapmer antisense oligonucleotide targeting murine TTC39C (antisense eT*e[5mC]*e[5mC]*e[5mC]*eT*dG*dA*dA*dG*d[5mC]*d[5mC]*dG*dT*dT*dG*eT*eT*eG*eA*eG) |  |  |  |  |  |  | 96 | 56 | 62 | 79 | 91 | 94 | 
ISIS 474516: 5-10-5 MOE gapmer antisense oligonucleotide targeting murine TTC39C (antisense eT*eT*eA*eG*eT*dG*dG*dA*d[5mC]*dT*dA*dT*dG*dA*dT*eT*eT*e[5mC]*eT*eG) |  |  |  |  |  |  | 94 | 34 | 61 | 71 | 88 | 95 | 800
TCGAAATGTTTCTTGAGCCT (antisense eT*e[5mC]*eG*eA*eA*dA*dT*dG*dT*dT*dT*d[5mC]*dT*dT*dG*eA*eG*e[5mC]*e[5mC]*eT) [ISIS 447119] | 65 | 28 | 52 | 80 | 77 |  |  |  |  |  |  |  | 
TGAATGCTATTATTGGATCT (antisense eT*eG*eA*eA*eT*dG*d[5mC]*dT*dA*dT*dT*dA*dT*dT*dG*eG*eA*eT*e[5mC]*eT) [ISIS 447140] | 66 | 29 | 55 | 77 | 80 |  |  |  |  |  |  |  | 
